According to PubChem BioAssay AID330 (DTP/NCI, 2004):
Where “and” joins values, the source holds several entries; their conditions need not be identical. Equal entries are not always repeated. Inconclusive results and toxic doses are left out.

System: P388 leukemia ip, CD2F1 mice, survival T/C
Experiment: NCI In Vivo Anticancer Drug Screen. Data for tumor model P388 Leukemia (intraperitoneal) in CD2F1 (CDF1) mice
Details: endpoint: median survival time, higher = longer survival
In short: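 Mice carrying the transplanted tumor received test compound or vehicle. Survival was recorded in each group, and the value is the treated-group measurement divided by that of the vehicle-treated control group.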

[1] = dose: 3.75 mg/kg/injection, schedule: Q01DX005 (ip), vehicle: saline with Tween-80
[2] = dose: 7.5 mg/kg/injection, schedule: Q01DX005 (ip), vehicle: saline with Tween-80
[3] = dose: 50.0 mg/kg/injection, schedule: Q01DX009 (ip), vehicle: Klucel (hydroxypropylcellulose) (HPC)
[4] = dose: 60.0 mg/kg/injection, schedule: Q01DX005 (ip), vehicle: Klucel (hydroxypropylcellulose) (HPC)
[5] = dose: 120.0 mg/kg/injection, schedule: Q01DX005 (ip), vehicle: Klucel (hydroxypropylcellulose) (HPC)
[6] = dose: 100.0 mg/kg/injection, schedule: Q04DX002 (ip), vehicle: saline with Tween-80
[7] = dose: 200.0 mg/kg/injection, schedule: Q04DX002 (ip), vehicle: saline with Tween-80
[8] = dose: 400.0 mg/kg/injection, schedule: Q04DX002 (ip), vehicle: saline with Tween-80
[9] = dose: 60.0 mg/kg/injection, schedule: Q01DX005 (ip), vehicle: saline with Tween-80
[10] = dose: 120.0 mg/kg/injection, schedule: Q01DX005 (ip), vehicle: saline with Tween-80
[11] = dose: 240.0 mg/kg/injection, schedule: Q01DX005 (ip), vehicle: saline with Tween-80
[12] = dose: 50.0 mg/kg/injection, schedule: Q01DX005 (ip), vehicle: Klucel (hydroxypropylcellulose) (HPC)
[13] = dose: 100.0 mg/kg/injection, schedule: Q01DX005 (ip), vehicle: Klucel (hydroxypropylcellulose) (HPC)
[14] = dose: 12.5 mg/kg/injection, schedule: Q01DX009 (ip), vehicle: saline
[15] = dose: 25.0 mg/kg/injection, schedule: Q01DX009 (ip), vehicle: saline
[16] = dose: 100.0 mg/kg/injection, schedule: Q01DX009 (ip), vehicle: Klucel (hydroxypropylcellulose) (HPC)
[17] = dose: 240.0 mg/kg/injection, schedule: Q01DX005 (ip), vehicle: Klucel (hydroxypropylcellulose) (HPC)

In the case of `O=C1OC(c2ccc(Cl)c(Cl)c2)C(=O)C1=O` (centres undefined), the T/C [1] is reported as 86 % of control, the T/C [2] is reported as 91 % of control and the T/C (dose: 15.0 mg/kg/injection, schedule: Q01DX005 (ip), vehicle: Klucel + Tween-80) is reported as 92 % of control. For the same compound, the T/C (dose: 15.0 mg/kg/injection, schedule: Q01DX005 (ip), vehicle: saline with Tween-80) was 102 % of control.
`CCN(CC)Sc1cccc([N+](=O)[O-])c1` was tested, and the T/C (dose: 12.5 mg/kg/injection, schedule: Q01DX009 (ip), vehicle: Klucel (hydroxypropylcellulose) (HPC)) was 108 % of control, the T/C (dose: 25.0 mg/kg/injection, schedule: Q01DX009 (ip), vehicle: Klucel (hydroxypropylcellulose) (HPC)) was 118 % of control and the T/C [3] was 113 % of control and 119 % of control.
`CN1/C(=C/C2=C([O-])C(=C/C3=[N+](C)c4ccccc4C3(C)C)/C2=O)C(C)(C)c2ccccc21` was tested, and the T/C [4] was 91 % of control and the T/C [5] was 87 % of control.
`O=C(Nc1ccc(F)cc1)/C(Cl)=C1/Sc2ccccc2NC1=O` was tested, and the T/C (dose: 100.0 mg/kg/injection, schedule: Q01DX001 (ip), vehicle: saline with Tween-80) was 102 % of control, the T/C (dose: 200.0 mg/kg/injection, schedule: Q01DX001 (ip), vehicle: saline with Tween-80) was 94 % of control and the T/C (dose: 400.0 mg/kg/injection, schedule: Q01DX001 (ip), vehicle: saline with Tween-80) was 94 % of control.
In the case of `CCCCC[C@@H]1CCCC2C1CC[C@@H](CCCCCI)N2C(=O)OCC(Cl)(Cl)Cl` (some centres undefined), the T/C [6] is reported as 100 % of control, the T/C [7] is reported as 100 % of control and the T/C [8] is reported as 105 % of control.
For `COc1cc2c(cc1O)C(C)Cc1cc3c(cc1N(C)CC2)OCO3` (centres undefined), the T/C (dose: 100.0 mg/kg/injection, schedule: Q04DX002 (ip), vehicle: saline) was 106 % of control, the T/C (dose: 200.0 mg/kg/injection, schedule: Q04DX002 (ip), vehicle: saline) was 113 % of control and the T/C (dose: 400.0 mg/kg/injection, schedule: Q04DX002 (ip), vehicle: saline) was 103 % of control.
With `COCC1N=C(COCc2ccccc2)OC1c1ccccc1` (centres undefined) the T/C [9] was 100 % of control, the T/C [10] was 95 % of control and the T/C [11] was 100 % of control.
In the case of `O=C(Nc1cc(S(=O)(=O)O)cc2cc(S(=O)(=O)O)c(N=Nc3cc(Nc4nc(Cl)nc(Nc5ccc(S(=O)(=O)O)cc5)n4)ccc3S(=O)(=O)O)c(O)c12)c1ccccc1`, the T/C (dose: 60.0 mg/kg/injection, schedule: Q01DX005 (ip), vehicle: saline) is reported as 106 % of control and the T/C (dose: 120.0 mg/kg/injection, schedule: Q01DX005 (ip), vehicle: saline) is reported as 102 % of control.
`CCCCCN(CCCCC)CC(O)c1ccc(OC)c2ccccc12` (centres undefined) was tested, and the T/C [12] was 88 % of control and the T/C [13] was 88 % of control.
With `COc1ccc(C2=C(Cl)C(=O)N(c3ccccc3Cl)C(=O)C2(Cl)Cl)cc1` the T/C (dose: 100.0 mg/kg/injection, schedule: Q04DX002 (ip), vehicle: Klucel (hydroxypropylcellulose) (HPC)) was 105 % of control, the T/C (dose: 200.0 mg/kg/injection, schedule: Q04DX002 (ip), vehicle: Klucel (hydroxypropylcellulose) (HPC)) was 112 % of control and the T/C (dose: 400.0 mg/kg/injection, schedule: Q04DX002 (ip), vehicle: Klucel (hydroxypropylcellulose) (HPC)) was 113 % of control.
For `CC1=C(Sc2ccc(Br)cc2)C(N)Nc2nc(N)nc(N)c21` (centres undefined), the T/C [9] was 89 % of control and the T/C [10] was 89 % of control.
In the case of `N#CCCSC(=S)C1CCCCC1=N` (centres undefined), the T/C (dose: 50.0 mg/kg/injection, schedule: Q01DX009 (ip), vehicle: saline + alcohol) is reported as 109 % of control, the T/C (dose: 100.0 mg/kg/injection, schedule: Q01DX009 (ip), vehicle: saline + alcohol) is reported as 111 % of control and the T/C (dose: 200.0 mg/kg/injection, schedule: Q01DX009 (ip), vehicle: saline + alcohol) is reported as 109 % of control.
With `CCN(CC)c1ccc(NC(c2ccccc2)C(O)c2ccccc2)cc1` (centres undefined) the T/C [12] was 96 % of control and the T/C [13] was 104 % of control.
With `CCn1cc(C(=O)O)c(=O)c2ccc(C)[n+](CCSC(=N)N)c21` the T/C [6] was 104 % of control, the T/C [7] was 99 % of control and the T/C [8] was 100 % of control.
For `COc1ccc(CC(C)NCC(O)c2ccc(O)c(NC=O)c2)cc1` (centres undefined), the T/C (dose: 6.25 mg/kg/injection, schedule: Q01DX009 (ip), vehicle: saline) was 100 % of control, the T/C [14] was 101 % of control and the T/C [15] was 99 % of control. For the same compound, the T/C (dose: 50.0 mg/kg/injection, schedule: Q01DX009 (ip), vehicle: suspension in saline) was 99 % of control and the T/C (dose: 200.0 mg/kg/injection, schedule: Q01DX009 (ip), vehicle: suspension in saline) was 91 % of control.
With `CC1C(=O)OC2C1CCC1(C)CCC(O)C(C)C21` (centres undefined) the T/C [6] was 102 % of control, the T/C [7] was 99 % of control and the T/C [8] was 99 % of control.
In the case of `O=C(Nc1cccc(Br)c1)Oc1cccc2cccnc12`, the T/C [9] is reported as 105 % of control, the T/C [10] is reported as 94 % of control and the T/C [11] is reported as 90 % of control.
For `COc1cccc2c1C(=N)c1c(O)c3c(c(O)c1C2=O)C[C@@](O)(C(=O)CO)C[C@@H]3OC1CC(N)C(O)C(C)O1` (some centres undefined), the T/C (dose: 1.56 mg/kg/injection, schedule: Q04DX003 (ip), vehicle: water) was 115 % of control, the T/C (dose: 3.13 mg/kg/injection, schedule: Q04DX003 (ip), vehicle: water) was 118 % of control and the T/C (dose: 6.25 mg/kg/injection, schedule: Q04DX003 (ip), vehicle: water) was 122 % of control. The T/C (dose: 25.0 mg/kg/injection, schedule: Q04DX003 (ip), vehicle: water) was 155 % of control and 163 % of control, the T/C (dose: 50.0 mg/kg/injection, schedule: Q04DX003 (ip), vehicle: water) was 173 % of control and 188 % of control and the T/C (dose: 100.0 mg/kg/injection, schedule: Q04DX003 (ip), vehicle: water) was 194 % of control and 217 % of control. For the same compound, the T/C (dose: 150.0 mg/kg/injection, schedule: Q04DX003 (ip), vehicle: water) was 165 % of control.
For `CC1CN2CC(C)O[Si](CC[Si]34OC(C)CN(CC(C)O3)CC(C)O4)(O1)OC(C)C2` (centres undefined), the T/C [12] was 108 % of control, the T/C [13] was 106 % of control and the T/C (dose: 200.0 mg/kg/injection, schedule: Q01DX005 (ip), vehicle: Klucel (hydroxypropylcellulose) (HPC)) was 105 % of control.
In the case of `CN(C)NC(=S)Sc1ccccc1`, the T/C [3] is reported as 100 % of control and the T/C [16] is reported as 99 % of control.
For `O=C(Nc1cccc(C(F)(F)F)c1)c1cc2cc(Br)ccc2oc1=O`, the T/C [4] was 102 % of control, the T/C [5] was 96 % of control and the T/C [17] was 92 % of control.
`Nc1cc(C(F)(F)F)cc(N)c1N` was tested, and the T/C (dose: 50.0 mg/kg/injection, schedule: Q01DX005 (ip), vehicle: saline with Tween-80) was 104 % of control, the T/C (dose: 100.0 mg/kg/injection, schedule: Q01DX005 (ip), vehicle: saline with Tween-80) was 94 % of control and the T/C (dose: 200.0 mg/kg/injection, schedule: Q01DX005 (ip), vehicle: saline with Tween-80) was 99 % of control.
With `CCc1c(C)nc2cc(-c3cc(C)n4c(=O)c(CC)c(C)nc4c3)cc(C)n2c1=O` the T/C [4] was 90 % of control, the T/C [5] was 96 % of control and the T/C [17] was 100 % of control.
For `Cn1c(=O)c2cn[nH]c2n(C)c1=O`, the T/C [3] was 104 % of control, the T/C [16] was 100 % of control and the T/C (dose: 200.0 mg/kg/injection, schedule: Q01DX009 (ip), vehicle: Klucel (hydroxypropylcellulose) (HPC)) was 96 % of control.
`NCC(SSC(CN)C(=O)O)C(=O)O` (centres undefined) was tested, and the T/C [14] was 100 % of control, the T/C [15] was 101 % of control and the T/C (dose: 50.0 mg/kg/injection, schedule: Q01DX009 (ip), vehicle: saline) was 103 % of control and 115 % of control.
In the case of `CCOC1c2cc3c(cc2NC(=O)N1C)OCO3` (centres undefined), the T/C (dose: 37.5 mg/kg/injection, schedule: Q01DX009 (ip), vehicle: saline with Tween-80) is reported as 97 % of control, the T/C (dose: 75.0 mg/kg/injection, schedule: Q01DX009 (ip), vehicle: saline with Tween-80) is reported as 94 % of control and the T/C (dose: 150.0 mg/kg/injection, schedule: Q01DX009 (ip), vehicle: saline with Tween-80) is reported as 100 % of control.
For `CC(=O)C1=C(c2ccc([N+](=O)[O-])cc2)NC(=O)NC1c1ccco1` (centres undefined), the T/C (dose: 100.0 mg/kg/injection, schedule: Q04DX003 (ip), vehicle: saline with Tween-80) was 95 % of control, the T/C (dose: 200.0 mg/kg/injection, schedule: Q04DX003 (ip), vehicle: saline with Tween-80) was 100 % of control and the T/C (dose: 400.0 mg/kg/injection, schedule: Q04DX003 (ip), vehicle: saline with Tween-80) was 100 % of control.
For `C/C(=N\NC(=S)N1CCN(c2cnccn2)CC1)c1ccccn1`, the T/C [1] was 120 % of control and the T/C [2] was 120 % of control and 122 % of control.
